# US20130210823A1, “METHODS FOR C[…]” (SYNGENTA PARTICIPATIONS AG, priority 2010, published 2013)
# Tested on: Varroa destructor
# Assay: Varroa mite contact test on Potter-tower treated Petri dishes
# Type: in vivo
# Conditions: adult V. destructor, contact with spray deposit, concentration of formulation 1 × 10^−−4 g, assessed after 72 h
# Excerpt: Varroa mites came from bee colonies provided by a beekeeper. The mite population is kept in a dedicated apiary. For screening needs adults are collected on the same day as the beginning of experiment, either in beehive cells containing brood of worker bees or drones, or directly on bees emerging during collection.
# Bee nymphs needed to feed adults of Varroa mites during experiments are choosen within the frames from which Varroa is also collected. They are collected at the stage of nymph with white or pink coloured eyes according methology described by Rembold et Kremer (Characterization of postembryonic developmental stages of the female castes of the honey bee, Apis mellifera L. Apidologie 11: 29-38).
# 3 cm diameter Petri dishes were used as confinement material of Varroa mites during experiments. Covers with wire mesh were put on the top of each Petri dish in order to avoid the mites to run away but also to keep favorable humidity for the bee nymph. […]
# After treatment of Petri dishes, five (5) adults of V. destructor collected from the brood were placed in the petri dish. […] During a test 20 Varroa adults are tested for a given compound (4 dishes of 5 individuals).Mortality levels are assessed after 72 h (mites which are able to move their legs are considered as alive). […]
structure (smiles),measurement,value
"CC1=NNC(=O)N(N=Cc2cccnc2)C1 [pymetrozine, 2,3,4,5-tetrahydro-3-oxo-4-[(pyridin-3-yl)methyleneamino]-6-methyl-1,2,4-triazine]",% mortality of Varroa,90%
